# Reference: patent publication US11964973B2 (priority 2019, dated 2024)
# Read-outs that look alike come from different tables or passages of the source.
# What was measured:
# human DGKζ = human DGKζ (Homo sapiens (Human), UniProt Q13574); experiment: biochemical; assay type: biochemical; conditions: liposome (LIPGLO) assay; read-out: DGKζ LIPGLO IC50
# DGKα [1] = target: T1, DGKα (Homo sapiens (Human), UniProt P23743); experiment: biochemical; assay type: biochemical; conditions: liposome (LIPGLO) assay; read-out: DGKα LIPGLO IC50
# [2] = system: Human venous whole blood (IFN-γ); experiment: Human whole blood IFN-γ assay; assay type: cell-based
# Method: Assay 10: Human Whole Blood IFN-γ Assay
# Human venous whole blood (22.5 μL per well), obtained from healthy donors, was pre-treated with compounds for one hour at 37° C. in a humidified 95% air/5% CO2 incubator. The blood was stimulated with 2.5 μL anti-human CD3 and anti-CD28 mAb at a final concentration of 1 μg/mL each for 24 hours at 37° C. IFN-γ in the supernatants was measured using AlphLISA kit (Cat #AL217).
# DGKα [3] = target: T1, DGKα; experiment: DGKα ADPGLO assay; assay type: biochemical
# T1 sequence (P23743 whole entry, looked up): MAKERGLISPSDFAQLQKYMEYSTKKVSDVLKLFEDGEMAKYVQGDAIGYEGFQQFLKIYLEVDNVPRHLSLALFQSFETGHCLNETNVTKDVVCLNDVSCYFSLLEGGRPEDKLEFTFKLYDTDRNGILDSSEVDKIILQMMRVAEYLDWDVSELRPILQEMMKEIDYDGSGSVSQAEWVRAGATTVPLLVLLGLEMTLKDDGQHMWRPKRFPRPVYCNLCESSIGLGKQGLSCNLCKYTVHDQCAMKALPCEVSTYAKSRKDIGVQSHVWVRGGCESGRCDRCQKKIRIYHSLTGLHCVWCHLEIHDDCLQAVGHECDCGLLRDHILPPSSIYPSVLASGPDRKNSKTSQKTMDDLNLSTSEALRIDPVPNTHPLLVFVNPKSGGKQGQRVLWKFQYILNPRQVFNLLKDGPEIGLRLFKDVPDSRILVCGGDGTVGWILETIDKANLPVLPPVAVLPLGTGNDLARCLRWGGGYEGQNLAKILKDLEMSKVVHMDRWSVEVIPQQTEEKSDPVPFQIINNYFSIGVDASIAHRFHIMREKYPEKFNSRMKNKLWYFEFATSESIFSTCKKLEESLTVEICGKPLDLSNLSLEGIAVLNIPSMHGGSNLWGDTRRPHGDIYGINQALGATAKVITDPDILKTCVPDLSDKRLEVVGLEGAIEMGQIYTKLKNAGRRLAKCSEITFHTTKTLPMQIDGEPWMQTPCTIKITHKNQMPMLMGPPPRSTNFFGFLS
# Chain of human DGKζ (Q13574 whole entry, looked up): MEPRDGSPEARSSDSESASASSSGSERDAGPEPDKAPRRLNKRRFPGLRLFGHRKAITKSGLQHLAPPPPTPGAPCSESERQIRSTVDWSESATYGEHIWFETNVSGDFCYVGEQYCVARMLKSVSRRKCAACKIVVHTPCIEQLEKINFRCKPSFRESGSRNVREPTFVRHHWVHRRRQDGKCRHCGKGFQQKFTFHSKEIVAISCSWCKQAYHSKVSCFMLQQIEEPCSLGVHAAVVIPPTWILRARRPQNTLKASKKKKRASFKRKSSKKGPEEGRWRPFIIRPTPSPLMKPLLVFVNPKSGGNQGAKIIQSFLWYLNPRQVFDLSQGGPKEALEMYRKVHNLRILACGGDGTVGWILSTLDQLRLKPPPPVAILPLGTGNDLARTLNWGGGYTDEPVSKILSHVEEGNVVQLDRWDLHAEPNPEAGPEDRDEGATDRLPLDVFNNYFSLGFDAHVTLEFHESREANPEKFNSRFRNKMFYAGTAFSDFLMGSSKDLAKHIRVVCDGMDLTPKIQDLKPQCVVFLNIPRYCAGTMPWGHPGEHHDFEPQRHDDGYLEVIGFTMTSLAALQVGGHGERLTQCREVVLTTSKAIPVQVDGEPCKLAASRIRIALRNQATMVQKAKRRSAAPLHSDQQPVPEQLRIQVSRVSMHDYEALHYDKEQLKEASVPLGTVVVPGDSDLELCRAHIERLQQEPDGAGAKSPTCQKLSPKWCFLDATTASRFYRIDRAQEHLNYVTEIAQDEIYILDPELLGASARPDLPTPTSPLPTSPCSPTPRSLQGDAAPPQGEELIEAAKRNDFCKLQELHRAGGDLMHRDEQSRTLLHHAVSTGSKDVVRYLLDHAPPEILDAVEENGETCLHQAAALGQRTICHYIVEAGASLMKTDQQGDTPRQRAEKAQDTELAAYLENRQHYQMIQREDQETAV
compound,measurement,setting,value
"C[C@@H]1CN(c2cc(=O)n(C)c3ccc(C#N)nc23)CC[C@H]1Oc1cccc(C2CC2)c1 (single isomer, unassigned) [Example 92]",IC50,human DGKζ,16000 nM
same,IC50,DGKα [1],28 nM
same,EC50,"[2]; human whole blood, anti-CD3 plus anti-CD28, 24 hours; read-out: INFg Whole Blood Normalized Agonist EC50",910 nM
same,IC50,DGKα [3],0.51 nM
"CC[C@@H]1CN(c2cc(=O)n(C)c3ccc(C#N)nc23)CC[C@H]1Oc1cccc(C(C)C)c1 (single isomer, unassigned) [Example 138]",IC50,human DGKζ,800 nM
same,IC50,DGKα [1],24 nM
same,EC50,"[2]; read-out: INFg Whole Blood Normalized Agonist EC50; human whole blood, anti-CD3 plus anti-CD28, 24 hours",340 nM
same,IC50,DGKα [3],5.2 nM
